Active and inactive are the calls of the source. The calls are words filed in the database; no cut-off is given here.
Legend:
[1] = system: Plasmodium falciparum; experiment: Induction of apoptosis in schizont stage Plasmodium falciparum HB3 infected red blood cells assessed as caspase activity measured by FLICA reagent based fluorescence assay; assay type: functional, organism-based
[2] = system: Plasmodium falciparum; experiment: […] activity in schizont stage Plasmodium falciparum HB3 assessed as reduction in mitochondrial membrane potential at 10 uM incubated for 20 mins and measured after 3 hrs by DiOC6-staining based fluorometry analysis relative to control; assay type: functional, organism-based
[3] = Disruption of cell membrane integrity in red blood cells incubated for 3 hrs at 10 uM and measured by propidium iodide incorporation assay relative to control; assay type: ADME, cell membranes
[4] = system: Leishmania donovani; experiment: Antileishmanial activity against Leishmania donovani axenic amastigotes at 10 ug/mL assessed as growth inhibition relative to control; assay type: functional; details: read-out: GI
[5] = system: Trypanosoma cruzi; experiment: Antitrypanosomal activity against Trypanosoma cruzi amastigotes infected in African green monkey Vero cells incubated for 5 days at 10 ug/mL by chlorophenol red-beta-D-galactoside based colorimetric analysis relative to control; assay type: functional; details: 120 h, time 5 day, read-out: GI
[6] = Selectivity index, ratio of CC50 for African green monkey Vero cells to IC50 for Plasmodium falciparum HB3 infected in human erythrocytes assessed as reduction in parasite growth; assay type: toxicity, cell-based; details: read-out: Ratio CC50/IC50
[7] = system: Erythrocyte; experiment: Hemolytic activity against red blood cells assessed as hemolysis at 10 uM incubated for 24 hrs by spectrophotometric analysis relative to control; assay type: ADME, cell-based
[8] = system: Plasmodium falciparum; experiment: Induction of reactive oxygen species generation in schizont stage Plasmodium falciparum HB3 incubated for 3 hrs at 10 uM by CM-H2DCFDA dye based fluorescence assay relative to control; assay type: functional, organism-based
[9] = system: Plasmodium falciparum HB3; experiment: Disruption of cell membrane integrity in schizont stage Plasmodium falciparum HB3 infected red blood cells incubated for 3 hrs at 10 uM and measured by propidium iodide incorporation assay relative to control; assay type: cell membranes
[10] = system: Vero; experiment: Cytotoxicity against African green monkey Vero cells assessed as reduction in cell viability by MTT assay; assay type: functional; details: Chlorocebus sabaeus
[11] = system: Plasmodium falciparum; experiment: Antiplasmodial activity against Plasmodium falciparum HB3 infected in human erythrocytes assessed as reduction in parasite growth incubated for 48 hrs by PicoGreen DNA fluorescent dye; assay type: functional, organism-based; details: HB3, 48 h
[12] = target: T1, DNA gyrase (Escherichia coli) (UniProt P0AES6+P0AES4); experiment: Inhibition of Escherichia coli DNA gyrase at 10 uM by fluorescence based assay relative to control; assay type: protein-complex assay
[13] = system: Hemozoin; experiment: Inhibition of beta-hematin formation in Plasmodium falciparum assessed as decrease in beta-hematin; set-up: scale not given: the % may be the effect or the level left
[14] = system: MCF7; experiment: Growth inhibition of human MCF7 cells at 10 ug/mL relative to control; assay type: functional; details: read-out: GI
[15] = target: T1, DNA gyrase (Escherichia coli); experiment: Inhibition of Escherichia coli DNA gyrase at 100 uM by fluorescence based assay relative to control; assay type: protein-complex assay
[16] = target: T1, DNA gyrase (Escherichia coli); experiment: Inhibition of Escherichia coli DNA gyrase at 50 uM by fluorescence based assay relative to control; assay type: protein-complex assay
[17] = system: Trypanosoma cruzi; experiment: Antitrypanosomal activity against Trypanosoma cruzi amastigotes infected in African green monkey Vero cells incubated for 5 days by chlorophenol red-beta-D-galactoside based colorimetric analysis; assay type: functional, organism-based; details: 120 h

Row | IC50 [17] [µM] | SMILES | selectivity ratio [6] | CC50 [10] [µM] | IC50 [11] [µM] | also measured
1 | – | CCC[C@H](O)C[C@H]1OC(=O)c2c(cc(OC)c(OC)c2O)[C@H]1OC | 675 | 258 | 0.38 | Activity [1]: inactive; Activity [2]: Active; Activity [3]: Non-Toxic; inhibition of growth at 10 µg/mL [4]: 0%; inhibition of growth at 10 µg/mL [5]: 0%; Activity [7]: Non-Toxic; Activity [8]: inactive; Activity [9]: inactive; inhibition [12]: 48%; Activity [13]: 51.1%; inhibition of growth at 10 µg/mL [14]: 0%
2 | – | CCC[C@H]1C[C@H]2OC(=O)c3c(cc(OC)c(OC)c3O)[C@H]2O1 [MONOCERIN] | 77 | 87.5 | 1.13 | –
3 | – | CC/C(=C(\c1ccccc1)c1ccc(OCCN(C)C)cc1)c1ccccc1 | – | – | – | inhibition [15]: Active
4 | – | CCN(CC)CCCC(C)Nc1ccnc2cc(Cl)ccc12 (configuration not stated) | – | – | – | Activity [13]: 68.2%; inhibition [16]: inactive
5 | – | CCC[C@H]1C[C@H]2OC(=O)c3c(cc(OC)c(OC)c3OC(C)=O)[C@H]2O1 | 161 | 124 | 0.77 | –
6 | 12.4 | CCC[C@H]1C[C@H]2OC(=O)c3c(cc(O)c(O)c3OCc3ccc(C(F)(F)F)cc3)[C@H]2O1 | – | – | – | –
7 | 13.6 | CCC[C@H]1C[C@H]2OC(=O)c3c(cc(O)c(O)c3OCc3cccc(C(F)(F)F)c3)[C@H]2O1 | – | – | – | –
8 | – | COC(=O)CC[C@H]1C[C@H]2OC(=O)c3c(cc(OC)c(OC)c3O)[C@H]2O1 | 41 | 106 | 2.58 | –
9 | – | COc1cc2c(c(O)c1OC)C(=O)O[C@@H]1C[C@H](C[C@H](C)O)O[C@H]21 | 22 | 262 | 11.7 | –
10 | 11.9 | CCC[C@H]1C[C@H]2OC(=O)c3c(cc(O)c(O)c3OCc3cc(C(F)(F)F)cc(C(F)(F)F)c3)[C@H]2O1 | – | – | – | –
